Assay results reported in publication PMC10706071, “Simultaneous Improvement in the Thermostability and Catalytic Activity of Epoxidase Lsd18 for the Synthesis of Lasalocid A” (International Journal of Molecular Sciences, 2023).

Legend:
Format in all cases: binding
Lsd18 [1] = molecular target: T1, Lsd18 (Streptomyces lasalocidi, UniProt B5M9L6); test: bound FAD released by heating ([…] °C, […] min), absorbance at […] nm; conditions: co-purified FAD; 20 mM Tris pH 8.5, 150 mM NaCl
T1 construct: full-length gene in pCold (NdeI/EcoRI), E. coli BL21(DE3) with chaperone plasmid pG-KJE8, Ni beads and gel filtration; reductively ethylated for crystals only
T1 sequence (B5M9L6 1-472): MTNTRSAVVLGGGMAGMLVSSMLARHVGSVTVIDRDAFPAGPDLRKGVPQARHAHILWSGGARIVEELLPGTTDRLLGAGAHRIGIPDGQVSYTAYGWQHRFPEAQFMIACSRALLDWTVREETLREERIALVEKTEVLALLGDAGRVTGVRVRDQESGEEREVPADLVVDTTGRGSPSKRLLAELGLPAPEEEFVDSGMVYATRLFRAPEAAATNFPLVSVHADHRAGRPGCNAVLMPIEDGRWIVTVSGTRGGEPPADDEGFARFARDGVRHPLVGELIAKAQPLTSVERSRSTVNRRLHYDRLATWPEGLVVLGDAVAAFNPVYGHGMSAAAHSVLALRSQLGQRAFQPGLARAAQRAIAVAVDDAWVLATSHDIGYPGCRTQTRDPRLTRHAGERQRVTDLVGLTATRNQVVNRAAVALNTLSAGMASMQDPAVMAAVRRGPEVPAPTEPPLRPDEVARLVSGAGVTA

Lsd18 [2] = molecular target: T2, Lsd18 (Streptomyces lasalocidi, UniProt B5M9L6, T173M/S179M); test: X-ray crystal structure ([…] Å); FAD content by absorbance at […] nm; conditions: co-purified FAD; reductively ethylated protein for crystals
T2 construct: full-length gene in pCold (NdeI/EcoRI), E. coli BL21(DE3) with chaperone plasmid pG-KJE8, Ni beads and gel filtration; reductively ethylated for crystals only
T2 sequence (B5M9L6 whole entry T173M/S179M): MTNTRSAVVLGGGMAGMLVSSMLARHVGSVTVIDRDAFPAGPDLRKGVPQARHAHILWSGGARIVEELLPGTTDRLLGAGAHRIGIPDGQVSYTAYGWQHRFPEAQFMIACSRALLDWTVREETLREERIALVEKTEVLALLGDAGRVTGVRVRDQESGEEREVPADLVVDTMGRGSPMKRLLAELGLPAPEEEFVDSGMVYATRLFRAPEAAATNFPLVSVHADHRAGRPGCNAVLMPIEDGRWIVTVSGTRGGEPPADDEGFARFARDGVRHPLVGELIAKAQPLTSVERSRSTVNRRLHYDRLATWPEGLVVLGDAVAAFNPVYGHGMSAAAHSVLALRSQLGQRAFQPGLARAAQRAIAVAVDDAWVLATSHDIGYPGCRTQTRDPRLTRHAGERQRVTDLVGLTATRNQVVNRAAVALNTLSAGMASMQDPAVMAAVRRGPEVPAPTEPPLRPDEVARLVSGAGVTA

Lsd18 [3] = molecular target: T3, Lsd18 (Streptomyces lasalocidi, UniProt B5M9L6, S179M); test: bound FAD released by heating, absorbance at […] nm; conditions: co-purified FAD; 20 mM Tris pH 8.5, 150 mM NaCl
T3 construct: full-length gene in pCold (NdeI/EcoRI), E. coli BL21(DE3) with chaperone plasmid pG-KJE8, Ni beads and gel filtration; reductively ethylated for crystals only
T3 sequence (B5M9L6 whole entry S179M): as the sequence (B5M9L6 whole entry T173M/S179M) above, with M173T counted along it

Lsd18 [4] = molecular target: T4, Lsd18 (Streptomyces lasalocidi, UniProt B5M9L6, T173M); test: bound FAD released by heating, absorbance at […] nm; conditions: co-purified FAD; 20 mM Tris pH 8.5, 150 mM NaCl
T4 construct: full-length gene in pCold (NdeI/EcoRI), E. coli BL21(DE3) with chaperone plasmid pG-KJE8, Ni beads and gel filtration; reductively ethylated for crystals only
T4 sequence (B5M9L6 whole entry T173M): as the sequence (B5M9L6 whole entry T173M/S179M) above, with M179S counted along it

In the case of `Cc1cc2nc3c(=O)[nH]c(=O)nc-3n(C[C@H](O)[C@H](O)[C@H](O)COP(=O)(O)OP(=O)(O)OC[C@H]3O[C@@H](n4cnc5c(N)ncnc54)[C@H](O)[C@@H]3O)c2cc1C` [FAD], the FAD content (Lsd18 [1]) is reported as “the yellower the color of Lsd18 (attributed to bound FAD), the more stable it was”, the “X-ray crystal structure (3.76 Å); FAD content by absorbance at 451 nm” value (Lsd18 [2]) is reported as “M189 forms a hydrogen bond with the cofactor FAD that could stabilize the binding” and the FAD content (Lsd18 [3]) is reported as “the FAD content in the mutants Lsd18-T189M, Lsd18-S195M, Lsd18-T189M-S195M increased”. The FAD content (Lsd18 [4]) was “the FAD content in the mutants Lsd18-T189M, Lsd18-S195M, Lsd18-T189M-S195M increased”.
